# Data reported in US20150105252A1, “SUBSTITUTED PYRAZOLES AS HERBICIDES” (E I DU PONT DE NEMOURS AND COMPANY, priority 2013, published 2015).
# Experiments:
# bromegrass, downy [1] = assay: Test D preemergence; type: in vivo, Bromus tectorum; details: Preemergence, scale 0 to 100
# Procedure, shortened: (§1)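 Visual 0-100 rating (100 = complete control) against untreated plants, made 14 to 21 days after treatment in a controlled environment. Compounds, formulated with surfactant in non-phytotoxic solvent, were applied either to seeds just sown in silt loam or to 1- to 4-leaf plants (2 to 18 cm) grown in peat-based medium.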
# galium = assay: Test D preemergence; type: in vivo, Galium aparine; details: Preemergence, scale 0 to 100
# Procedure, shortened: as §1
# windgrass = assay: Test D postemergence; type: in vivo, Apera spica-venti; details: scale 0 to 100
# Procedure, shortened: as §1
# lambsquarters [2] = assay: Test D preemergence; type: in vivo, Chenopodium album; details: Preemergence, scale 0 to 100
# Procedure, shortened: as §1
# field poppy = assay: Test D postemergence; type: in vivo, Papaver rhoeas; details: scale 0 to 100
# Procedure, shortened: as §1
# chamomile [3] = assay: Test D preemergence; type: in vivo, Matricaria inodora; details: Preemergence, scale 0 to 100
# Procedure, shortened: as §1
# oat, wild [4] = assay: Test D preemergence; type: in vivo, Avena fatua; details: Preemergence, scale 0 to 100
# Procedure, shortened: as §1
# bluegrass = assay: Test D postemergence; type: in vivo, Poa annua; details: scale 0 to 100
# Procedure, shortened: as §1
# canarygrass = assay: Test D postemergence; type: in vivo, Phalaris minor; details: scale 0 to 100
# Procedure, shortened: as §1
# oat, wild [5] = assay: Test D postemergence; type: in vivo, Avena fatua; details: scale 0 to 100
# Procedure, shortened: as §1
# radish, wild = assay: Test D postemergence; type: in vivo, Raphanus raphanistrum; details: scale 0 to 100
# Procedure, shortened: as §1
# speedwell = assay: Test D postemergence; type: in vivo, Veronica persica; details: scale 0 to 100
# Procedure, shortened: as §1
# blackgrass = assay: Test D preemergence; type: in vivo, Alopecurus myosuroides; details: Preemergence, scale 0 to 100
# Procedure, shortened: as §1
# chamomile [6] = assay: Test D postemergence; type: in vivo, Matricaria inodora; details: scale 0 to 100
# Procedure, shortened: as §1
# field violet = assay: Test D postemergence; type: in vivo, Viola arvensis; details: scale 0 to 100
# Procedure, shortened: as §1
# oilseed rape = assay: Test D postemergence; type: in vivo, Brassica napus; details: scale 0 to 100
# Procedure, shortened: as §1
# lambsquarters [7] = assay: Test D postemergence; type: in vivo, Chenopodium album; details: scale 0 to 100
# Procedure, shortened: as §1
# kochia = assay: Test D preemergence; type: in vivo, Kochia scoparia; details: Preemergence, scale 0 to 100
# Procedure, shortened: as §1
# mustard, wild = assay: Test D postemergence; type: in vivo, Sinapis arvensis; details: scale 0 to 100
# Procedure, shortened: as §1
# bromegrass, downy [8] = assay: Test D postemergence; type: in vivo, Bromus tectorum; details: scale 0 to 100
# Procedure, shortened: as §1
compound,measurement,setting,value
CCCc1cc(C(=O)NC(C)C)nn1Cc1cc(C(F)(F)F)nn1C [Compound 201],"Plant response rating, Bromegrass, Downy","bromegrass, downy [1]; 31 g ai/ha",20
same,"Plant response rating, Bromegrass, Downy","bromegrass, downy [1]; 62 g ai/ha",60
same,"Plant response rating, Bromegrass, Downy","bromegrass, downy [1]; 125 g ai/ha",70
same,"Plant response rating, Bromegrass, Downy","bromegrass, downy [1]; 250 g ai/ha",100
same,"Plant response rating, Galium",galium; 62 g ai/ha,50
same,"Plant response rating, Galium",galium; 125 g ai/ha,100
same,"Plant response rating, Galium",galium; 250 g ai/ha,100
same,Windgrass plant response rating,"windgrass; Postemergence, 31 g ai/ha",20
same,Windgrass plant response rating,"windgrass; Postemergence, 125 g ai/ha",30
same,Windgrass plant response rating,"windgrass; Postemergence, 250 g ai/ha",45
same,Windgrass plant response rating,"windgrass; postemergence, 62 g ai/ha",20
same,"Plant response rating, Lambsquarters",lambsquarters [2]; 62 g ai/ha,90
same,"Plant response rating, Lambsquarters",lambsquarters [2]; 125 g ai/ha,100
same,"Plant response rating, Lambsquarters",lambsquarters [2]; 250 g ai/ha,100
same,Field Poppy plant response rating,"field poppy; Postemergence, 31 g ai/ha",55
same,Field Poppy plant response rating,"field poppy; Postemergence, 125 g ai/ha",60
same,Field Poppy plant response rating,"field poppy; Postemergence, 250 g ai/ha",65
same,Field Poppy plant response rating,"field poppy; postemergence, 62 g ai/ha",55
same,"Plant response rating, Chamomile",chamomile [3]; 31 g ai/ha,50
same,"Plant response rating, Chamomile",chamomile [3]; 62 g ai/ha,100
same,"Plant response rating, Chamomile",chamomile [3]; 125 g ai/ha,100
same,"Plant response rating, Chamomile",chamomile [3]; 250 g ai/ha,100
same,"Plant response rating, Oat, Wild","oat, wild [4]; 62 g ai/ha",60
same,"Plant response rating, Oat, Wild","oat, wild [4]; 125 g ai/ha",100
same,"Plant response rating, Oat, Wild","oat, wild [4]; 250 g ai/ha",100
same,Bluegrass plant response rating,"bluegrass; Postemergence, 31 g ai/ha",20
same,Bluegrass plant response rating,"bluegrass; Postemergence, 125 g ai/ha",35
same,Bluegrass plant response rating,"bluegrass; Postemergence, 250 g ai/ha",40
same,Bluegrass plant response rating,"bluegrass; postemergence, 62 g ai/ha",20
same,Canarygrass plant response rating,"canarygrass; Postemergence, 31 g ai/ha",15
same,Canarygrass plant response rating,"canarygrass; Postemergence, 125 g ai/ha",20
same,Canarygrass plant response rating,"canarygrass; Postemergence, 250 g ai/ha",60
same,Canarygrass plant response rating,"canarygrass; postemergence, 62 g ai/ha",15
same,"Oat, Wild plant response rating","oat, wild [5]; Postemergence, 31 g ai/ha",25
same,"Oat, Wild plant response rating","oat, wild [5]; Postemergence, 125 g ai/ha",50
same,"Oat, Wild plant response rating","oat, wild [5]; Postemergence, 250 g ai/ha",70
same,"Oat, Wild plant response rating","oat, wild [5]; postemergence, 62 g ai/ha",25
same,"Radish, Wild plant response rating","radish, wild; Postemergence, 31 g ai/ha",65
same,"Radish, Wild plant response rating","radish, wild; Postemergence, 125 g ai/ha",65
same,"Radish, Wild plant response rating","radish, wild; Postemergence, 250 g ai/ha",65
same,"Radish, Wild plant response rating","radish, wild; postemergence, 62 g ai/ha",65
same,Speedwell plant response rating,"speedwell; Postemergence, 31 g ai/ha",70
same,Speedwell plant response rating,"speedwell; Postemergence, 125 g ai/ha",70
same,Speedwell plant response rating,"speedwell; Postemergence, 250 g ai/ha",100
same,Speedwell plant response rating,"speedwell; postemergence, 62 g ai/ha",70
same,"Plant response rating, Blackgrass",blackgrass; 31 g ai/ha,35
same,"Plant response rating, Blackgrass",blackgrass; 62 g ai/ha,90
same,"Plant response rating, Blackgrass",blackgrass; 125 g ai/ha,100
same,"Plant response rating, Blackgrass",blackgrass; 250 g ai/ha,100
same,Chamomile plant response rating,"chamomile [6]; Postemergence, 31 g ai/ha",35
same,Chamomile plant response rating,"chamomile [6]; Postemergence, 125 g ai/ha",55
same,Chamomile plant response rating,"chamomile [6]; Postemergence, 250 g ai/ha",65
same,Chamomile plant response rating,"chamomile [6]; postemergence, 62 g ai/ha",35
same,Field Violet plant response rating,"field violet; Postemergence, 31 g ai/ha",55
same,Field Violet plant response rating,"field violet; Postemergence, 125 g ai/ha",65
same,Field Violet plant response rating,"field violet; Postemergence, 250 g ai/ha",75
same,Field Violet plant response rating,"field violet; postemergence, 62 g ai/ha",55
same,Oilseed Rape plant response rating,"oilseed rape; Postemergence, 31 g ai/ha",40
same,Oilseed Rape plant response rating,"oilseed rape; Postemergence, 125 g ai/ha",50
same,Oilseed Rape plant response rating,"oilseed rape; Postemergence, 250 g ai/ha",70
same,Oilseed Rape plant response rating,"oilseed rape; postemergence, 62 g ai/ha",40
same,Lambsquarters plant response rating,"lambsquarters [7]; Postemergence, 31 g ai/ha",75
same,Lambsquarters plant response rating,"lambsquarters [7]; Postemergence, 125 g ai/ha",90
same,Lambsquarters plant response rating,"lambsquarters [7]; Postemergence, 250 g ai/ha",90
same,Lambsquarters plant response rating,"lambsquarters [7]; postemergence, 62 g ai/ha",75
same,"Plant response rating, Kochia",kochia; 62 g ai/ha,100
same,"Plant response rating, Kochia",kochia; 125 g ai/ha,100
same,"Plant response rating, Kochia",kochia; 250 g ai/ha,100
same,"Mustard, Wild plant response rating","mustard, wild; Postemergence, 31 g ai/ha",75
same,"Mustard, Wild plant response rating","mustard, wild; Postemergence, 125 g ai/ha",85
same,"Mustard, Wild plant response rating","mustard, wild; Postemergence, 250 g ai/ha",90
same,"Mustard, Wild plant response rating","mustard, wild; postemergence, 62 g ai/ha",75
same,"Bromegrass, Downy plant response rating","bromegrass, downy [8]; Postemergence, 31 g ai/ha",30
same,"Bromegrass, Downy plant response rating","bromegrass, downy [8]; Postemergence, 125 g ai/ha",35
same,"Bromegrass, Downy plant response rating","bromegrass, downy [8]; Postemergence, 250 g ai/ha",50
same,"Bromegrass, Downy plant response rating","bromegrass, downy [8]; postemergence, 62 g ai/ha",30
